Article PMC10447267, “Assessment of the potential of the MET inhibitor tepotinib to affect the pharmacokinetics of CYP3A4 and P-gp substrates” (Investigational New Drugs, 2023)
Where two headings read alike, the source gives them in different places.

Columns and labels:
[1] = Safety and tolerability in the two clinical studies; format: in vivo, human; details: healthy participants; tepotinib 500 mg once daily, both studies
Method: Safety and tolerability were also assessed throughout each study.

CYP2B6 = CYP2B6 activity induction in primary human hepatocyte cultures; format: in vitro ADME; details: enzyme activity quantification
Method: In vitro studies in primary human hepatocyte cultures were conducted to assess the potential of tepotinib to induce human CYP1A1/2, 2B6 and 3A4/5 activity, the latter based on testosterone 6β-hydroxylation reactions (Online Resource 2). […] The studies included positive (rifampin) and vehicle (DMSO) controls. A negative control (flumazenil) was also included in the mRNA studies. The study designs, test systems and selection of prototypical inducers used in these studies were consistent with PhRMA, FDA and EMA guidelines.

CYP2C8 = biological target: T1, CYP2C8 (Homo sapiens, UniProt P10632); experiment: CYP2C8 inhibition in pooled human liver microsomes; format: in vitro ADME; details: Amodiaquine N-dealkylation
T1 sequence (P10632 1-490): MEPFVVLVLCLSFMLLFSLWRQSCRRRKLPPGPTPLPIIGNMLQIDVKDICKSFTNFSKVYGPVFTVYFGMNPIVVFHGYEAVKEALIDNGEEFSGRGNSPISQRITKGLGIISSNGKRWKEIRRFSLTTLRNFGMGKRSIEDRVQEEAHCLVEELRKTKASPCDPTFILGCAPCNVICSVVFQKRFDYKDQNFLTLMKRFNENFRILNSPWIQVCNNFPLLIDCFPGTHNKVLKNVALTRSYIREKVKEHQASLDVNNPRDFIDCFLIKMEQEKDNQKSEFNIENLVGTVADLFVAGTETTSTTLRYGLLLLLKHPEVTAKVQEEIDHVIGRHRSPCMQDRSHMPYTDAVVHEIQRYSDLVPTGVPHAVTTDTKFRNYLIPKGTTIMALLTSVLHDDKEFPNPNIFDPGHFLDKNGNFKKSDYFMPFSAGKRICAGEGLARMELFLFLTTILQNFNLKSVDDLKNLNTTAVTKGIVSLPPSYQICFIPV
Method: The potential of tepotinib and MSC2571109A to inhibit CYP450 enzymes CYP1A2, 2A6, 2B6, 2C8, 2C9, 2C19, 2D6, 2E1, and 3A4/5 in vitro was evaluated using CYP-catalyzed reactions in pooled mixed-gender human liver microsomes using specific substrates and liquid chromatography/tandem mass spectrometry (LC–MS/MS) readouts. […] Testosterone 6β-hydroxylation was assessed in the MSC2571109A study. Assessments of mechanism-based inhibition of the above listed CYP450 enzymes were conducted after pre-incubation of the microsomes with tepotinib or MSC2571109A. A brief summary of the incubation methods, including details of substrates used for the other CYP enzymes (which are not pertinent to this article) are presented in Online Resource 1. The LC–MS/MS-based methods used were consistent with those previously described in the literature.

SMILES: CN1CCC(COc2cnc(-c3cccc(Cn4nc(-c5cccc(C#N)c5)ccc4=O)c3)nc2)CC1 [tepotinib]
- Safety and tolerability (in words) [1]: safe and well tolerated
- Induction of CYP2B6 activity (CYP2B6): less than 40 % of positive control
- Potential for time-dependent inhibition (CYP2C8): Little or No
- IC50 (CYP2C8; 30-min preincubation, read-out: Time-dependent inhibition IC50): 13 µM
- Type of inhibition (CYP2C8; direct inhibition): Mixed
- inhibition at 49.5 µM (CYP2C8; both sexes, human, pooled human liver microsomes, probe amodiaquine, zero-minute preincubation, 49.5 µM, read-out: Direct inhibition, maximum inhibition at 49.5 µM): 86%
- Ki (CYP2C8; human liver microsomes, read-out: Direct inhibition Ki): 11 µM
- IC50 (CYP2C8; human liver microsomes, zero-minute preincubation, read-out: Direct inhibition IC50): 16 µM
